Data set [1] has as its system Wilson strain house flies. In kind it is in vivo, house fly (susceptible Wilson strain). Conditions: for Contact Synergistic Ratio, Carbaryl (LC50 insecticide alone / LC50 with synergist): in vivo; for Contact Synergistic Ratio, Pyrolan (LC50 insecticide alone / LC50 with synergist): synergist to insecticide 5:1 by weight, 24 h. The procedure: The required solutions of the insecticide and of the synergist compound were prepared in acetone at a concentration of one milligram per milliliter. One-pint wide mouth glass jars were coated wiith the appropriate insecticide-synergist combination by rolling the jars containing aliquots of the appropriate solutions diluted to three milliliters with acetone to deposit, by evaporation, a film of the test materials. The flies were transferred under carbon dioxide anesthesia and held in the jar at room temperature. Perforated aluminum foil was used to cover the jars and to hold cotton saturated with 10% sugar solution. Counts were made at intervals, but the recorded mortality was based on 24-hour kill, rather than knockdown. All prostrate nonmoving flies were considered dead. A determination was then made of the contact synergistic ratio [SR], which is the ratio of the LC50 of insecticide alone to the LC50 of the insecticide when applied together with the synergist. The LC50 of the insecticide was estimated from a log-probit plot of percent kill versus dosage. […] The LC50 of the combination of insecticide and synergist was determined at a synergist to insecticide parts by weight ratio of five to one.

The subject of data set [2] is mice. The experiment in a line: extension of Secobarbital sleeping time by synergists. Conditions: Secobarbital 37 mg/K; for Relative Sleeping Time: treated/control. Type of data set: in vivo, Swiss albino white male mice. How it is done: (§1) The selectivity of the synergist compounds of this invention is illustrated by the results of sleeping-time extension tests and of acute toxicity tests on Swiss albino white male mice.
(§2) The effect of various synergist compounds on sleeping time of sodium secobarbital [Secobarbital] and of 3,3-diethyl-5-methyl-2,4-dioxypiperidine [Noludar] was determined by administering the drug, with and without synergist, to approximately 38-day old male mice weighing from 25 to 30 grams. Synergists were administered in each of two doses, 74.0 mg/kg (dilution being 2.0 mg/0.1 ml corn oil), and 110.0 mg/kg (dilution 3.0 mg/0.1 ml oil). Secobarbital was administered at a dose of 37.0 mg/kg (dilution 1.0 mg/0.1 ml water). Noludar was administered at a dose of 110.0 mg/kg (dilution 3.0 mg/0.1 ml water). The synergist was administered one hour prior to administration of the Secobarbital or Noludar. Secobarbital and Noludar sleeping times were obtained for both the control (drug only) and the treated (synergist plus drug) mice by noting the time lapse between the administration of the drug and the recovery of the righting reflex, i.e. when the animal regains conciousness and can walk up an inclined wooden tray with coordination. The relative sleeping time (R.S.) was noted. The R.S. is the extended sleeping time in the treated mice (synergist plus drug) divided by the sleeping time in the control mice (drug only). The mean sleeping time for the treated mice and the R.S. are shown on Table XXXXIV for various synergist compounds.

Data set [3] deals with mice. The experiment in a line: synergism of acute toxicity of Dimetilan, GS 13005, Secobarbital and Methadone (intraperitoneal). Type of data set: in vivo, Swiss albino white male mice. Conditions: 48 hours, of eight mice. The procedure:
The synergism of the acute toxicity of Dimetilan by various synergists was determined by tests on Swiss albino, white male mice aged 5 to 6 weeks and weighing 23 to 27 grams. The synergists and insecticides were dissolved in corn oil and the drugs were dissolved in distilled water. All compounds were administered intraperitoneally by injection in the lower quadrent of the abdomen. The synergist was administered in 0.1 ml of corn oil 1 hour prior to administration of the insecticide. Eight mice were treated, per dosage, with each synergist. The mice were watched for a minimum of 6 hours while held in a glass jar with bedding individually after intraperitoneal injection of the test solutions. Lethality was noted, the animals were weighed and transferred in cages, and food and water were supplied. Control mice were given 0.1 ml of corn oil at the time of administration of the synergist to the test mice and 0.1 ml corn oil plus Dimetilan at the time of administration of the insecticide to the test mice.
By the same procedure, the synergism of acute toxicity of GS 13005, Secobarbital and 6-dimethylamino-4,4-diphenyl-3-heptanone [Methadone] was determined.

Data set [4] deals with mice. The data set is described as follows: extension of Noludar sleeping time by synergists. Conditions: Noludar 110 mg/K, synergist 110 mg/K; for Relative Sleeping Time: treated/control. In kind it is in vivo, Swiss albino white male mice. The procedure:
as §1, §2

Setting [5] is: Dimetilan 8 mg/kg + synergist 240 mg/kg ip.

With `C#CCON=Cc1ccc(N(C)C)cc1` [I-C], in data set [1], the “Contact Synergistic Ratio, Carbaryl (LC50 insecticide alone / LC50 with synergist)” value was 200 and the “Contact Synergistic Ratio, Pyrolan (LC50 insecticide alone / LC50 with synergist)” value is listed as 20. Moreover, in data set [2] (synergist 74 mg/K), the “Mean Sleeping Time” value was determined as 30 min and the “Relative Sleeping Time” value is recorded as 1.1. For the same compound, in data set [2] (synergist 110 mg/K), the “Mean Sleeping Time” value turned out to be 108 min and the “Relative Sleeping Time” value is listed as 1.8. Further, the “number of mice dead” value in data set [3] (setting [5]) turned out to be 0. Further, in data set [4], the “Mean Sleeping Time” value worked out at 34 min and the “Relative Sleeping Time” value was 1.0.

Take `C#CCn1ncc2cc([N+](=O)[O-])ccc21` [III-A]: in data set [1], the “Contact Synergistic Ratio, Carbaryl (LC50 insecticide alone / LC50 with synergist)” value came to 143 and the “Contact Synergistic Ratio, Pyrolan (LC50 insecticide alone / LC50 with synergist)” value is 30. Further, in data set [2] (synergist 110 mg/K), the “Mean Sleeping Time” value came out at 50 min and the “Relative Sleeping Time” value stood at 1.1. Moreover, the “number of mice dead” value in data set [3] (setting [5]) is given as 0. In data set [4], the “Mean Sleeping Time” value came to 32 min and the “Relative Sleeping Time” value came out at 1.0.

As to `C#CCn1nc(Cl)c2ccccc21` [III-B], in data set [1], the “Contact Synergistic Ratio, Carbaryl (LC50 insecticide alone / LC50 with synergist)” value worked out at 117 and the “Contact Synergistic Ratio, Pyrolan (LC50 insecticide alone / LC50 with synergist)” value is given as 30. Also, in data set [2] (synergist 110 mg/K), the “Mean Sleeping Time” value amounted to 6 min and the “Relative Sleeping Time” value is 1.3. Besides, the “number of mice dead” value in data set [3] (setting [5]) is on record as 0. Further, in data set [4], the “Mean Sleeping Time” value was 46 min and the “Relative Sleeping Time” value is 1.0.

On to `C#CCn1ncc2ccc(Cl)cc21` [III-D], for which, in data set [1], the “Contact Synergistic Ratio, Carbaryl (LC50 insecticide alone / LC50 with synergist)” value turned out to be 250 and the “Contact Synergistic Ratio, Pyrolan (LC50 insecticide alone / LC50 with synergist)” value was 25. In data set [2] (synergist 110 mg/K), the “Mean Sleeping Time” value amounted to 55 min and the “Relative Sleeping Time” value was 1.2. The “number of mice dead” value in data set [3] (setting [5]) is listed as 1. For the same compound, in data set [4], the “Mean Sleeping Time” value was 45 min and the “Relative Sleeping Time” value is listed as 1.5.

On to `C#CCOC(c1ccc(Cl)cc1Cl)C(C)[N+](=O)[O-]` (centres unmarked) [IV-A, 2-propynyl 1-(2,4-dichlorophenyl)-2-nitropropyl ether], for which, in data set [1], the “Contact Synergistic Ratio, Carbaryl (LC50 insecticide alone / LC50 with synergist)” value is listed as 134 and the “Contact Synergistic Ratio, Pyrolan (LC50 insecticide alone / LC50 with synergist)” value was 10. Further, in data set [2] (synergist 74 mg/K), the “Mean Sleeping Time” value was 56 min and the “Relative Sleeping Time” value was determined as 2.3. Besides, in data set [3] (Dimetilan 8 mg/kg + synergist 80 mg/kg ip), the “number of mice dead” value turned out to be 4. For the same compound, the “number of mice dead” value in data set [3] (setting [5]) was 7. For the same compound, in data set [4], the “Mean Sleeping Time” value was 78 min and the “Relative Sleeping Time” value came out at 2.7.

Values taken from patent US4020111A, “Propynyloxy alkyl arene insecticides” (priority 1975, dated 1977).
